The values that follow come from ChEMBL document CHEMBL1144380, “Furanyl-1,3-thiazol-2-yl and benzoxazol-5-yl acetic acid derivatives: novel classes of heparanase inhibitor” (Bioorg Med Chem Lett, 2005).

pIC50: −log10 of the molar value. Some results are limits rather than exact numbers.

In the first test the target is T1, Heparanase (Homo sapiens, UniProt Q9Y251).
T1 sequence (Q9Y251 whole entry): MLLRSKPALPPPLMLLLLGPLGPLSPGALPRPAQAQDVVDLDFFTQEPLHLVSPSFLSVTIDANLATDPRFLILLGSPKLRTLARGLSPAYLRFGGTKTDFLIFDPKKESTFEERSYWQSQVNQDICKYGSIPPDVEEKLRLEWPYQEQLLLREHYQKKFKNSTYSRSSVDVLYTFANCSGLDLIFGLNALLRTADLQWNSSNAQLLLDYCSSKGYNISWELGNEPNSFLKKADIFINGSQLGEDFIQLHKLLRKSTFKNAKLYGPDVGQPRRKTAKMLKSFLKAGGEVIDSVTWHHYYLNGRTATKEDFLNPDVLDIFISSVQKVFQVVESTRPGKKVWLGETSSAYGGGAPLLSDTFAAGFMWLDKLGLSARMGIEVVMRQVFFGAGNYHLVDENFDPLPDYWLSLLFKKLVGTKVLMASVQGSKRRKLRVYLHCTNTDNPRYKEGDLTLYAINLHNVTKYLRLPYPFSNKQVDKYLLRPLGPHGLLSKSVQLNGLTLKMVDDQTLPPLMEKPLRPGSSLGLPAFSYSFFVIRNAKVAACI
The test is described as follows: In vitro inhibitory concentration against human Heparanase.
Settings: not given
For orientation: pIC50 means the negative decadic logarithm of the IC50, by convention in mol/L. The low end stands for a large IC50, the high end for a small IC50. Turning to `COc1ccccc1NC(=O)/C=C/c1ccc(-c2nc3cc(CC(=O)O)ccc3o2)cc1`, the negative-log IC50 (pIC50) is under 5.00.
On the same count and under the same terms, the figure for `O=C(O)Cc1nc(-c2ccc(-c3ccc(NC(=O)c4ccccc4)cc3Cl)o2)cs1` is under 4.52.
Still for that read-out and setting: next, `COc1ccc(NC(=O)/C=C/c2ccc(-c3nc4cc(CC(=O)O)ccc4o3)cc2)cc1OC`: under 5.00.
`O=C(O)Cc1ccc2oc(-c3ccc(NC(=O)/C=C/c4ccccc4)cc3Cl)nc2c1` had a pIC50 of under 4.52.
As to `O=C(O)Cc1ccc2oc(-c3ccc(NC(=O)c4ccc(Br)cc4)cc3Cl)nc2c1`, the pIC50 was under 5.00.

The target in the next test is Cytochrome P450 2C9 (Homo sapiens, UniProt P11712). The test is described as follows: In vitro inhibitory concentration against Cytochrome P450 2C9. It is filed as ADME.
Sequence of Cytochrome P450 2C9 (P11712 whole entry): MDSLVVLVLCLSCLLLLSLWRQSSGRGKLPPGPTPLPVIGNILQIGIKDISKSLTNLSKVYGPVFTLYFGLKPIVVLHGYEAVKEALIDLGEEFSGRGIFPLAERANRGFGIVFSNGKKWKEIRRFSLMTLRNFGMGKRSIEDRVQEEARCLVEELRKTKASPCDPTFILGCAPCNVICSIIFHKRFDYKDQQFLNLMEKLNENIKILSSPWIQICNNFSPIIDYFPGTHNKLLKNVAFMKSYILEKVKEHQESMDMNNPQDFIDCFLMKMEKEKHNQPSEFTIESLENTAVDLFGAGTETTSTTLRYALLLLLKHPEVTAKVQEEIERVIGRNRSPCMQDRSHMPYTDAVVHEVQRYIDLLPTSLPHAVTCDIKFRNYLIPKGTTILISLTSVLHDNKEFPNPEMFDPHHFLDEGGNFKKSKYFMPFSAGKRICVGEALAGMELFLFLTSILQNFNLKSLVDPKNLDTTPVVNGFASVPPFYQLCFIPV
Settings: not given
The compound `O=C(O)Cc1ccc2oc(-c3ccc(NC(=O)/C=C/c4ccc(Br)cc4)c(F)c3)nc2c1` had a pIC50 of under 4.52.

Test system in the next test: not listed separately
Nature of the test: In vitro anti-angiogenic activity in Human endothelial cells. As to conditions: endothelial cell. Format: functional, cell-based.
For `O=C(O)Cc1ccc2oc(-c3ccc(NC(=O)/C=C/c4cccc(Cl)c4)c(F)c3)nc2c1`, the pIC50 was 5.12.
`O=C(O)Cc1ccc2oc(-c3ccc(NC(=O)/C=C/c4ccc(Cl)cc4Cl)cc3Cl)nc2c1`: the pIC50 is 5.30.
Same read-out and setting: next, `N#Cc1cccc(C(=O)Nc2ccc(-c3ccc(-c4csc(CC(=O)O)n4)o3)c(Cl)c2)c1`: under 4.70.
The same measure, in the same setting: next, `O=C(O)Cc1ccc2oc(-c3ccc(NC(=O)/C=C/c4cccc(Cl)c4F)c(F)c3)nc2c1`: 5.30; `O=C(O)Cc1nc(-c2ccc(-c3ccc(NC(=O)c4ccc(OC(F)(F)F)cc4)cc3Cl)o2)cs1`: 6.30; `O=C(O)Cc1ccc2oc(-c3ccc(NC(=O)/C=C/c4cccc(Br)c4)c(F)c3)nc2c1`: 6.00.
Still for that read-out and setting: the figure for `O=C(O)Cc1ccc2oc(-c3ccc(NC(=O)/C=C/c4ccc(Br)cc4)c(F)c3)nc2c1` is 6.00; for `O=C(O)Cc1nc(-c2ccc(-c3ccc(NC(=O)/C=C/c4ccc(OC(F)(F)F)cc4)cc3Cl)o2)cs1` it is 4.70.
In turn, `N#Cc1ccc(/C=C/C(=O)Nc2ccc(-c3nc4cc(CC(=O)O)ccc4o3)cc2F)cc1` showed a pIC50 of 6.00.
`O=C(O)Cc1nc(-c2ccc(-c3ccc(NC(=O)c4ccc(Cl)cc4Cl)cc3Cl)o2)cs1`: the pIC50 is 6.30.
Take `O=C(O)Cc1nc(-c2ccc(-c3ccc(NC(=O)c4ccc(C(F)(F)F)cc4)cc3Cl)o2)cs1`: the negative-log IC50 (pIC50) is 5.12.
Compound `O=C(O)Cc1ccc2oc(-c3ccc(NC(=O)/C=C/c4cccc(Br)c4)cc3)nc2c1` gave a pIC50 of under 4.70.
`O=C(O)Cc1nc(-c2ccc(-c3ccc(NC(=O)/C=C/c4ccc(Cl)cc4Cl)cc3Cl)o2)cs1`: the pIC50 was under 4.70.
The same measure, in the same setting: the figure for `O=C(O)Cc1nc(-c2ccc(-c3ccc(NC(=O)/C=C/c4ccccc4)cc3Cl)o2)cs1` is 4.82; for `O=C(O)Cc1nc(-c2ccc(-c3ccc(NC(=O)c4ccc(Cl)cc4)cc3Cl)o2)cs1` it is 5.70.
The compound `O=C(O)Cc1ccc2oc(-c3ccc(NC(=O)/C=C/c4ccc(F)c(Cl)c4)c(F)c3)nc2c1` gave a pIC50 of 6.00.
Same read-out and setting: the figure for `O=C(O)Cc1ccc2oc(-c3ccc(NC(=O)/C=C/c4ccc(Br)cc4)cc3)nc2c1` is 4.70; for `O=C(O)Cc1nc(-c2ccc(-c3ccc(NC(=O)/C=C/c4ccc(Br)cc4)cc3Cl)o2)cs1` it is 6.00.
On to `O=C(O)Cc1ccc2oc(-c3ccc(NC(=O)/C=C/c4ccc(Br)cc4)cc3Cl)nc2c1`, for which the pIC50 is 5.12.
On the same count and under the same terms, next, `O=C(O)Cc1ccc2oc(-c3ccc(NC(=O)/C=C/c4cccc(Br)c4)cc3Cl)nc2c1`: 4.70.
Same read-out and setting: next, `O=C(O)Cc1ccc2oc(-c3ccc(NC(=O)/C=C/c4ccc(Cl)cc4Cl)c(F)c3)nc2c1`: under 4.70; `O=C(O)Cc1ccc2oc(-c3ccc(NC(=O)/C=C/c4ccc(Cl)c(Cl)c4)c(F)c3)nc2c1`: 6.70; `COc1ccc(/C=C/C(=O)Nc2ccc(-c3ccc(-c4csc(CC(=O)O)n4)o3)c(Cl)c2)cc1`: 5.30.
